Experimental data reported in US20120231450A1, “NOVEL PACEMAKER CELL” (priority 2009, published 2012).

Experiments:
[1] = system: HCN4-GFP positive cells derived from H7 embryoid body (pacemaker cells); assay: Patch clamp measurement of the beating rate (spontaneous excitation) of the pacemaker cells; type: cell-based, human; details: for effect on beating rate of the pacemaker cells (in words): drug added to perfusion solution, patch clamp
Experimental: Patch clamp: Cells which had been collected by cell sorting were seeded on gelatin-coated, 8-mm diameter cover slips (Warner Instruments) in a number of about 1,500 cells. On or after the next day, a patch clump method was used to observe the automaticity and to analyze functions of ion channels.
The quantification of electrical activities by a patch clump method and of contraction by video recording was carried out.
The quantification of electrical activities by a patch clump method was carried out.
It was ascertained that the beating rate of the pacemaker cells according to the present invention was increased by means of isoproterenol, a sympathetic stimulant, and decreased by means of carbachol, a parasympathetic stimulant. In these experiments, a patch clamp method was used to measure directly electrical phenomena (spontaneous excitation) from the pacemaker cells. To the perfusion solution were added isoproterenol, a sympathetic stimulant, which increased [sic], and then carbachol, a parasympathetic stimulant, to examine their effects.

[2] = system: heart of a rat with atrioventricular block; assay: Intraperitoneal isoproterenol in rat with atrioventricular block implanted with pacemaker cells, electrocardiogram; type: in vivo; details: isoproterenol injected into the peritoneal cavity; AVB rat with implants; FIG. 19
Experimental: Male ICR rats of 10 weeks old were used. Rats were administered with a 0.2 ml injection of an anesthetic (0.2% pentobarbital, MiliQ). Breathing assistance was provided by a mechanical ventilator and electrocardiogram monitoring was performed. A thoracotomy was made using an electrosurgical knife and 15 μl of 30% glycerol was injected using a microsyringe, into a place where the pulmonary artery is attached to the heart. It was ascertained, from the electrocardiogram, whether AVE wave forms (decrease in the beating rate, independent P and QRS waves) appeared when the injection allowed the atrioventricular node to be damaged. If AVB wave forms were not identified, injection of glycerol was done again. Thirty minutes after AVB wave forms were identified, the chest was closed after AVB wave forms were identified on the electrocardiogram. The ventilator was removed from each of the rats, which were subjected to oxygen inhalation at 37° C. When recovered from anesthesia, the rats were returned back to their cages. Pacemaker cells which were GFP positive cells were selected and collected by cell sorting. The pacemaker cells were collected in conical tubes, and then centrifuged at 1,000 rpm for 5 minutes to form a cell pellet, which was then suspended in differentiation induction medium. […]

SMILES	beating rate in the presence of carbachol ([1]; carbachol in perfusion solution, after isoproterenol washout, before: 17 beats per 10 seconds, FIG. 16) [beats per 10 seconds]	beating rate after washing out of carbachol ([1]; carbachol washed out, FIG. 16) [beats per 10 seconds]	effect on beating rate of the pacemaker cells (in words) [1]	beating rate in the presence of isoproterenol ([1]; 10^−5 M isoproterenol in perfusion solution, before: 54 beats per 10 seconds, FIG. 16) [beats per 10 seconds]	beating rate after washing out of isoproterenol ([1]; washout after 10^−5 M isoproterenol, FIG. 16) [beats per 10 seconds]	ventricular rhythm resulting from the implanted pacemaker cells after isoproterenol [2]
C[N+](C)(C)CCOC(N)=O [carbachol]	8	14	decreased			
CC(C)NCC(O)c1ccc(O)c(O)c1 (stereo not shown) [isoproterenol]			increased	61	45	accelerated (tachycardia)
